# Source: patent US9120756B2, “Substituted phenylureas and phenylamides as vanilloid receptor ligands” (Gruenenthal GmbH, priority 2009, dated 2015)
# Columns and labels:
# Format in all cases: cell-based
# hVR1 [1] = target: T1, hVR1 (Homo sapiens (Human), UniProt Q8NER1); assay: FLIPR assay hVR1, after pH stimulus; parameters: key to IC50 (human being) hVR1 pH: result in words (NE / AG): AG=agonist; pAG=partial agonist; NE=no effect; conditions: for IC50: read-out: IC50 (human being) hVR1 [nM], pH; for inhibition at 10 µM: read-out: IC50 (human being) hVR1 pH: inhibition (as a percentage) @ 10 μM, inhibition determined at 10 μM
# T1 sequence (Q8NER1 whole entry): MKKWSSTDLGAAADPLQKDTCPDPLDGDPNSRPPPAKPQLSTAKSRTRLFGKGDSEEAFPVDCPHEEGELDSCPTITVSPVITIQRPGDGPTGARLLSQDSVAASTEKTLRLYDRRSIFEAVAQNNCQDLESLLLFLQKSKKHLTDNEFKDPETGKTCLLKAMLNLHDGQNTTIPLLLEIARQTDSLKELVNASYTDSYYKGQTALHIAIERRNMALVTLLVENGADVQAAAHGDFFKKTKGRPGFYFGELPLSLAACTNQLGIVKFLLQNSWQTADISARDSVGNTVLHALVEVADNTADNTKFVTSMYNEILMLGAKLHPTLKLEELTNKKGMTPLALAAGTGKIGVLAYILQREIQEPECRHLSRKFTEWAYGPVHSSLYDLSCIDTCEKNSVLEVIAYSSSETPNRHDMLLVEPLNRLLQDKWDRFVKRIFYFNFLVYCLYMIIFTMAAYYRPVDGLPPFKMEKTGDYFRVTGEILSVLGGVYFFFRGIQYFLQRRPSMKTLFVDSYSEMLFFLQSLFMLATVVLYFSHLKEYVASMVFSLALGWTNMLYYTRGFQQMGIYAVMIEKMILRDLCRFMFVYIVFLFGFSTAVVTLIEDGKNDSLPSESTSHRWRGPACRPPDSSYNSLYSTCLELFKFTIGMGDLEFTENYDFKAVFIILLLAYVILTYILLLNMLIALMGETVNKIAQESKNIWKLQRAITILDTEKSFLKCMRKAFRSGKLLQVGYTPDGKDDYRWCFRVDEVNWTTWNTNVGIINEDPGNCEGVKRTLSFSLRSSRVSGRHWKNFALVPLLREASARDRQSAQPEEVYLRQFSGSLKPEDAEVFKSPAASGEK
# Method: (§1) In this assay, the influx of Ca^2+ through the channel is quantified with the aid of a Ca^2+-sensitive dye (type Fluo-4, Molecular Probes Europe BV, Leiden, the Netherlands) in a fluorescent imaging plate reader (FLIPR, Molecular Devices, Sunnyvale, USA). Chinese hamster ovary cells (CHO K1 cells, European Collection of Cell Cultures (ECACC) United Kingdom) are stably transfected with the VR1 gene. For functional testing, these cells are plated out on poly-D-lysine-coated black 96-well plates having a clear base (BD Biosciences, Heidelberg, Germany) at a density of 25,000 cells/well. […] Subsequently, the plates are washed three times with HBSS buffer and after further incubation for 15 minutes at RT used for Ca^2+ measurement in a FLIPR assay. […] Quantification is carried out by measuring the highest fluorescence intensity (FC, fluorescence counts) over time. The FLIPR protocol consists of 2 substance additions. […] Desensitising agonists and antagonists led to suppression of the Ca^2+ influx. […] Ki values for the test substances were obtained by conversion by means of the Cheng-Prusoff equation (Cheng, Prusoff; Biochem. Pharmacol. 22, 3099-3108, 1973).
# hVR1 [2] = target: T1, hVR1; assay: FLIPR Ca2+ influx assay on CHO K1 cells transfected with the VR1 gene, capsaicin stimulus (method II); parameters: key to Ki (human being) Cap: result in words (NE / AG): AG=agonist; pAG=partial agonist; NE=no effect; conditions: for Ki: capsaicin (Cap), read-out: Ki (human being) [nM] Cap
# hVR1 [3] = target: T1, hVR1; assay: FLIPR assay human VR1, 45° C. stimulus; parameters: key to IC50 (human being) 45° C. column: result in words (AG): AG=agonist; pAG=partial agonist; NE=no effect; conditions: for IC50: read-out: IC50 (human being) [nM], 45° C.
# Source text: The agonistic or antagonistic effect of the substances to be tested on the vanilloid receptor 1 (VR1) can also be determined using the following assay. In this assay, the influx of Ca^2+ through the channel is quantified with the aid of a Ca^2+-sensitive dye (type Fluo-4, Molecular Probes Europe BV, Leiden, the Netherlands) in a fluorescent imaging plate reader (FLIPR, Molecular Devices, Sunnyvale, USA).
# Chinese hamster ovary cells (CHO K1 cells, European Collection of Cell Cultures (ECACC) United Kingdom) are stably transfected with the VR1 gene. For functional testing, these cells are plated out on poly-D-lysine-coated black 96-well plates having a clear base (BD Biosciences, Heidelberg, Germany) at a density of 25,000 cells/well. The cells are incubated overnight at 37° C. and 5% CO2 in a culture medium (Ham's F12 nutrient mixture, 10% by volume of FCS (foetal calf serum), 18 μg/ml of L-proline). The next day the cells are incubated with Fluo-4 (Fluo-4 2 μM, 0.01% by volume of Pluronic F127, Molecular Probes in HBSS (Hank's buffered saline solution), Gibco Invitrogen GmbH, Karlsruhe, Germany) for 30 minutes at 37° C. Subsequently, the plates are washed three times with HBSS buffer and after further incubation for 15 minutes at RT used for Ca^2+ measurement in a FLIPR assay. The Ca^2+-dependent fluorescence is measured before and after the addition of the substances to be tested (λex wavelength=488 nm, λem=540 nm). Quantification is carried out by measuring the highest fluorescence intensity (FC, fluorescence counts) over time.
# The FLIPR protocol consists of 2 substance additions. […]
# Desensitising agonists and antagonists led to suppression of the Ca^2+ influx.
# Ki values for the test substances were obtained by conversion by means of the Cheng-Prusoff equation (Cheng, Prusoff; Biochem. Pharmacol. 22, 3099-3108, 1973).
# [4] = target: rat-species vanilloid receptor 1 (VR1/TRPV1) (Rattus norvegicus (Rat), UniProt O35433); assay: FLIPR Ca2+ influx assay on rat dorsal root ganglia cells, capsaicin stimulus (method I); conditions: for Ki: capsaicin (Cap)
# Chain of rat-species vanilloid receptor 1 (VR1/TRPV1) (O35433 whole entry): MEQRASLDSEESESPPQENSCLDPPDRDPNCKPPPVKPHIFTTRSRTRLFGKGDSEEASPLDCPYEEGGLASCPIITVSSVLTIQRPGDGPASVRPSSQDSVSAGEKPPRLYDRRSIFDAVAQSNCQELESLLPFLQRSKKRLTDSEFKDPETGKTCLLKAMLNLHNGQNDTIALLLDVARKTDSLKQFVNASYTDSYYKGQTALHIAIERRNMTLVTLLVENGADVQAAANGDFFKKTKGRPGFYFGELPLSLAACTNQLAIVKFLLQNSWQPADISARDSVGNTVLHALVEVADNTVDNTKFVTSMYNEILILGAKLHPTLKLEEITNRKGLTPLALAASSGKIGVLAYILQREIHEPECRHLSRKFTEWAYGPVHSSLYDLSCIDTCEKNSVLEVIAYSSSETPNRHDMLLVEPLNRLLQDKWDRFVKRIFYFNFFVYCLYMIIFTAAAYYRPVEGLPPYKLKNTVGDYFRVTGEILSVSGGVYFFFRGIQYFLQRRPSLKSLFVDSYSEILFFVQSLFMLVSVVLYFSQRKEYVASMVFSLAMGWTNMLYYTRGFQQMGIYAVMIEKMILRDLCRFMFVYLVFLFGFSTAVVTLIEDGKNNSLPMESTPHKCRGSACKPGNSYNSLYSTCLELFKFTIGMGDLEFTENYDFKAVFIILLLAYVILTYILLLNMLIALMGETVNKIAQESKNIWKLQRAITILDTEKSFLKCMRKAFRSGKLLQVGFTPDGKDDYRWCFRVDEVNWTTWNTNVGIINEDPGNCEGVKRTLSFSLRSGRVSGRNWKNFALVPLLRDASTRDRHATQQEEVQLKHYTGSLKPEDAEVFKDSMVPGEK
# Method: The agonistic or antagonistic effect of the substances to be tested on the rat-species vanilloid receptor 1 (VR1/TRPV1) can be determined using the following assay. In this assay, the influx of Ca^2+ through the receptor channel is quantified with the aid of a Ca^2+-sensitive dye (type Fluo-4, Molecular Probes Europe BV, Leiden, the Netherlands) in a fluorescent imaging plate reader (FLIPR, Molecular Devices, Sunnyvale, USA).
# Complete medium: 50 ml HAMS F12 nutrient mixture (Gibco Invitrogen GmbH, Karlsruhe, Germany) with
# 10% by volume of FCS (foetal calf serum, Gibco Invitrogen GmbH, Karlsruhe, Germany, heat-inactivated);
# 2 mM L-glutamine (Sigma, Munich, Germany);
# 1% by weight of AA solution (antibiotic/antimyotic solution, PAA, Pasching, Austria) and 25 ng/ml NGF medium (2.5 S, Gibco Invitrogen GmbH, Karlsruhe, Germany)
# Cell culture plate: Poly-D-lysine-coated, black 96-well plates having a clear base (96-well black/clear plate, BD Biosciences, Heidelberg, Germany) are additionally coated with laminin (Gibco Invitrogen GmbH, Karlsruhe, Germany), the laminin being diluted with PBS (Ca—Mg-free PBS, Gibco Invitrogen GmbH, Karlsruhe, Germany) to a concentration of 100 μg/ml. Aliquots having a laminin concentration of 100 μg/ml are removed and stored at −20° C. The aliquots are diluted with PBS in a ratio of 1:10 to 10 μg/ml of laminin and respectively 50 μL of the solution are pipetted into a recess in the cell culture plate. The cell culture plates are incubated for at least two hours at 37° C., the excess solution is removed by suction and the recesses are each washed twice with PBS. The coated cell culture plates are stored with excess PBS which is not removed until just before the feeding of the cells.
# The vertebral column is removed from decapitated rats and placed immediately into cold HBSS buffer (Hank's buffered saline solution, Gibco Invitrogen GmbH, Karlsruhe, Germany), i.e. buffer located in an ice bath, mixed with 1% by volume (percent by volume) of an AA solution (antibiotic/antimyotic solution, PAA, Pasching, Austria). The vertebral column is cut longitudinally and removed together with fasciae from the vertebral canal. Subsequently, the dorsal root ganglia (DRG) are removed and again stored in cold HBSS buffer mixed with 1% by volume of an AA solution. The DRG, from which all blood remnants and spinal nerves have been removed, are transferred in each case to 500 μL of cold type 2 collagenase (PAA, Pasching, Austria) and incubated for 35 minutes at 37° C. After the addition of 2.5% by volume of trypsin (PAA, Pasching, Austria), incubation is continued for 10 minutes at 37° C. After complete incubation, the enzyme solution is carefully pipetted off and 500 μL of complete medium are added to each of the remaining DRG. […] The contents of each Falcon tube are respectively filtered through a 70 μm Falcon filter element and centrifuged for 10 minutes at 1,200 rpm and RT. The resulting pellet is respectively taken up in 250 μL of complete medium and the cell count is determined.
# The number of cells in the suspension is set to 3×10^5 per ml and 150 μL of this suspension are in each case introduced into a recess in the cell culture plates coated as described hereinbefore. […] Subsequently, the cells are loaded with 2 μM of Fluo-4 and 0.01% by volume of Pluronic F127 (Molecular Probes Europe BV, Leiden, the Netherlands) in HBSS buffer (Hank's buffered saline solution, Gibco Invitrogen GmbH, Karlsruhe, Germany) for 30 min at 37° C., washed 3 times with HBSS buffer and after further incubation for 15 minutes at RT used for Ca^2+ measurement in a FLIPR assay. The Ca^2+-dependent fluorescence is in this case measured before and after the addition of substances (λex=488 nm, λem=540 nm). Quantification is carried out by measuring the highest fluorescence intensity (FC, fluorescence counts) over time.
# The FLIPR protocol consists of 2 substance additions.
# hVR1 [5] = target: T1, hVR1; assay: FLIPR assay human VR1, NADA (N-arachidonoyl dopamine) stimulus; parameters: key: AG=agonist; pAG=partial agonist; NE=no effect
# Method: as §1
smiles,measurement,setting,value
"CC(C(=O)NCc1cc(C(F)(F)F)nn1-c1ccc(Cl)cc1)c1ccc(NS(C)(=O)=O)c(F)c1 (stereo not shown) [Example 21, N-((1-(4-chlorophenyl)-3-(trifluoromethyl)-1H-pyrazol-5-yl)methyl)-2-(3-fluoro-4-(methylsulphonamido)phenyl)propanamide]",IC50,hVR1 [1],179 nM
same,Ki,hVR1 [2],0.3 nM
same,IC50,hVR1 [3],27 nM
same,Ki,[4],1.2 nM
"CC(C(=O)NCc1cc(C(C)(C)C)nn1-c1cccc(Cl)c1)c1cc(F)c(NS(C)(=O)=O)c(F)c1 (stereo not shown) [Example 29, N-((3-tert-butyl-1-(3-chlorophenyl)-1H-pyrazol-5-yl)methyl)-2-(3,5-difluoro-4-(methylsulphonamido)phenyl)propanamide]",inhibition at 10 µM,hVR1 [1],42%
same,Ki,hVR1 [2],1.2 nM
same,inhibition at 2 µM,"hVR1 [3]; read-out: IC50 (human being) 45° C. column: inhibition (as a percentage) @ 2 μM, inhibition determined at 2 μM",34%
"CC(C(=O)NCc1cc(C(F)(F)F)nn1-c1cccc(Cl)c1)c1ccc(C(F)(F)F)c(F)c1 (stereo not shown) [Example 141, N-((1-(3-chlorophenyl)-3-(trifluoromethyl)-1H-pyrazol-5-yl)methyl)-2-(3-fluoro-4-(trifluoromethyl)phenyl)propanamide]",Ki,hVR1 [2],13.6 nM
same,inhibition at 2.5 µM,"hVR1 [3]; inhibition determined at 2.5 μM, read-out: IC50 (human being) 45° C. column: inhibition (as a percentage) @ 2.5 μM",28%
same,Ki,[4],25.5 nM
"CCCCCCn1nc(C(C)(C)C)cc1CNC(=O)C(C)c1ccc(NS(C)(=O)=O)c(F)c1 (stereo not shown) [Example 5, N-((3-tert-butyl-1-hexyl-1H-pyrazol-5-yl)methyl)-2-(3-fluoro-4-(methylsulphonamido)phenyl)propanamide]",inhibition at 10 µM,hVR1 [1],36%
same,Ki,hVR1 [2],50.2 nM
same,IC50,hVR1 [3],282 nM
same,inhibition at 1 µM,"[4]; read-out: Ki (rat) Cap column: inhibition (as a percentage) @ 1 μM, capsaicin, inhibition determined at 1 μM",76%
"CC(C(=O)NCc1cc(C(C)(C)C)nn1-c1cccc(Cl)c1)c1ccc(S(=O)(=O)N(C)C)c(F)c1 (stereo not shown) [Example 49, N-((3-tert-butyl-1-(3-chlorophenyl)-1H-pyrazol-5-yl)methyl)-2-(4-(N,N-dimethylsulphamoyl)-3-fluorophenyl)propanamide]",IC50 (human being) hVR1 pH: result in words (NE / AG),hVR1 [1],AG
same,Ki (human being) NADA column: result in words (AG),hVR1 [5],AG
same,Ki (human being) Cap: result in words (NE / AG),hVR1 [2]; capsaicin,AG
same,IC50 (human being) 45° C. column: result in words (AG),hVR1 [3],AG
"COc1cc(C(C)C(=O)NCc2cc(C(F)(F)F)nn2-c2cccc(Cl)c2)ccc1NS(C)(=O)=O (stereo not shown) [Example 28, N-((1-(3-chlorophenyl)-3-(trifluoromethyl)-1H-pyrazol-5-yl)methyl)-2-(3-methoxy-4-(methylsulphonamido)phenyl)propanamide]",IC50,hVR1 [1],16 nM
same,Ki,hVR1 [2],0.4 nM
same,IC50,hVR1 [3],665 nM
"C[C@H](C(=O)NCc1cc(C(F)(F)F)nn1-c1ccc(Cl)cc1)c1ccc(NS(C)(=O)=O)c(F)c1 [Example 23, (S)-N-((1-(4-chlorophenyl)-3-(trifluoromethyl)-1H-pyrazol-5-yl)methyl)-2-(3-fluoro-4-(methylsulphonamido)phenyl)propanamide]",IC50,hVR1 [1],47.1 nM
same,Ki,hVR1 [2],0.3 nM
same,IC50,hVR1 [3],16.1 nM
same,Ki,[4],0.4 nM
